Laboratory results: the supplement of paper PMC5579334

Assays:
STS26T [1] = assay: relative IC50 (inflection point of fitted dose-response curve, CellTox-Green cytotoxicity, 72 h; top asymptote may be below 50%); higher = less potent
Method in brief: (§1)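 MPNST cell lines and primary human Schwann cells were incubated 72 h at 37 °C in 384-well plates holding five 10-fold compound dilutions. CellTox-Green was added before seeding at a final 1:1000 dilution and reported fluorescence from DNA released by disrupted cells. Signals were scaled to vehicle and positive-control wells, and cultures failing plate quality control were dropped. Drug sensitivity score and relative IC50 come from four-parameter logistic fits, with IC50 censored at the top concentration.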

ST8814 [2] = assay: as above
Method in brief: as §1

HS-PSS [3] = assay: as above
Method in brief: as §1

HSC1 [4] = assay: as above
Method in brief: as §1

S1507-2 [5] = assay: as above
Method in brief: as §1

HSC2 [6] = assay: as above
Method in brief: as §1

STS26T [7] = assay: relative IC50 (inflection point of fitted dose-response curve, CellTiter-Glo viability, 72 h; top asymptote may be below 50% inhibition); higher = less potent
Method in brief: (§2)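 Viability was scored by CellTiter-Glo ATP luminescence, scaled from vehicle to positive-control wells, with duplicates averaged where present. The cells, MPNST lines and primary human Schwann cells at 750–1000 per well, sat 72 h at 37 °C, 5% CO2, in 384-well plates preprinted with each compound at five concentrations in 10-fold steps. Four-parameter logistic fits were run on the data. These fits give drug sensitivity score and relative IC50 censored at the top concentration, and percent inhibition is reported at the top concentration.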

ST8814 [8] = assay: as above
Method in brief: as §2

HS-PSS [9] = assay: as above
Method in brief: as §2

S462 = assay: as above
Method in brief: as §2

HSC1 [10] = assay: as above
Method in brief: as §2

S1507-2 [11] = assay: as above
Method in brief: as §2

HSC2 [12] = assay: as above
Method in brief: as §2

HS-Sch-2 = assay: as above
Method in brief: as §2

YST-1 = assay: as above
Method in brief: as §2

| SMILES | relative IC50 (STS26T [1]) [nM] | relative IC50 (ST8814 [2]) [nM] | relative IC50 (HS-PSS [3]) [nM] | relative IC50 (HSC1 [4]) [nM] | relative IC50 (S1507-2 [5]) [nM] | relative IC50 (HSC2 [6]) [nM] | relative IC50 (STS26T [7]) [nM] | relative IC50 (ST8814 [8]) [nM] | relative IC50 (HS-PSS [9]) [nM] | relative IC50 (S462) [nM] | relative IC50 (HSC1 [10]) [nM] | relative IC50 (S1507-2 [11]) [nM] | relative IC50 (HSC2 [12]) [nM] | relative IC50 (HS-Sch-2) [nM] | relative IC50 (YST-1) [nM] |
| --- | --- | --- | --- | --- | --- | --- | --- | --- | --- | --- | --- | --- | --- | --- | --- |
| CO[C@H]1[C@@H](N(C)C(=O)c2ccccc2)C[C@@H]2O[C@@]1(C)n1c3ccccc3c3c4c(c5c6ccccc6n2c5c31)C(=O)NC4 [Midostaurin] | 323 | 274 | > 10000 | 901 | 395 | 243 | 436 | 443 | 465 | 580 | 112 | 282 | 155 | 409 | 163 |
| CCOc1cc2ncc(C#N)c(Nc3ccc(OCc4ccccn4)c(Cl)c3)c2cc1NC(=O)/C=C/CN(C)C [Neratinib] | > 1000 | > 1000 | > 1000 | > 1000 | > 1000 | > 1000 | 178 | 146 | 160 | 203 | 251 | 187 | 211 | 184 | 327 |
| CC(C)c1cc(-c2n[nH]c(=O)n2-c2ccc3c(ccn3C)c2)c(O)cc1O [Ganetespib] | 33 | 11.5 | 37.5 | 17.8 | 46.4 | 18.5 | 24.4 | 18.1 | 42.7 | 25 | 14.9 | 42.4 | 17.2 | 23.2 | 36.8 |
| CCC1(c2ccc(N)cc2)CCC(=O)NC1=O (stereo not drawn) [Aminoglutethimide] | > 10000 | > 10000 | > 10000 | > 10000 | > 10000 | > 10000 | > 10000 | > 10000 | > 10000 | > 10000 | > 10000 | > 10000 | > 10000 | > 10000 | > 10000 |
| S=P(N1CC1)(N1CC1)N1CC1 [Thio-TEPA] | > 50000 | > 50000 | > 50000 | > 50000 | > 50000 | > 50000 | > 50000 | > 50000 | > 50000 | > 50000 | > 50000 | > 50000 | > 50000 | – | > 50000 |
| NC(=O)Nc1cc(-c2cccc(F)c2)sc1C(=O)N[C@H]1CCCNC1 [AZD7762] | 135 | 243 | – | 313 | 57.1 | 266 | 139 | 149 | 207 | 54.7 | 161 | 63.1 | 310 | 67 | 313 |
| CC[C@]1(O)C[C@@H]2CN(CCc3c([nH]c4ccccc34)[C@@](C(=O)OC)(c3cc4c(cc3OC)N(C)[C@H]3[C@@](O)(C(=O)OC)[C@H](OC(C)=O)[C@]5(CC)C=CCN6CC[C@]43[C@@H]65)C2)C1 [Vinblastine] | 2.01 | 2.83 | – | 31.9 | 4.53 | 13.7 | 2.86 | 2.98 | 10.9 | 3.13 | 6.83 | 5.3 | 5.82 | 2.21 | 3.76 |
| Cc1cc(Nc2cc(CN3CCOCC3)c3nc(C)c(Cc4ccc(Cl)cc4F)n3n2)n[nH]1 [Gandotinib] | 1700 | 2770 | – | 1990 | 2400 | 2250 | 718 | 1730 | 1000 | 862 | 1270 | 1200 | 1090 | 1550 | 1170 |
| CC[C@@H]1C(=O)N(C)c2cnc(Nc3ccc(C(=O)NC4CCN(C)CC4)cc3OC)nc2N1C1CCCC1 [BI 2536] | 2.27 | 4.57 | – | 22.3 | 10.6 | 21.5 | 3.49 | 9.3 | 7.64 | 4.92 | 27.1 | 11.9 | 22.6 | 3.28 | 3.54 |
| O=C1NC(=O)[C@@H](c2cn3c4c(cccc24)CCC3)[C@@H]1c1c[nH]c2ccccc12 [Tivantinib] | 210 | 328 | – | 240 | 253 | 243 | 239 | 330 | 239 | 340 | 276 | 254 | 251 | 231 | 190 |
| Cn1c(CCCC(=O)O)nc2cc(N(CCCl)CCCl)ccc21 [Bendamustine] | > 10000 | > 10000 | > 10000 | > 10000 | > 10000 | > 10000 | > 10000 | > 10000 | > 10000 | > 10000 | > 10000 | > 10000 | > 10000 | > 10000 | – |
| COC(=O)C[C@](O)(CCCC(C)(C)O)C(=O)O[C@@H]1C(OC)=C[C@]23CCCN2CCc2cc4c(cc2[C@H]13)OCO4 [Omacetaxine] | 130 | 489 | – | 1090 | 524 | 589 | 41.6 | 46.5 | 47 | 23.8 | 51.7 | 66.1 | 50.8 | 67.5 | 9.94 |
| OC[C@H]1O[C@@H](n2cnc3c2N=CNC[C@H]3O)C[C@@H]1O [Pentostatin] | > 10000 | > 10000 | > 10000 | > 10000 | > 10000 | > 10000 | > 10000 | > 10000 | > 10000 | > 10000 | > 10000 | > 10000 | > 10000 | > 10000 | – |
| Cn1c(=O)n(-c2ccc(C(C)(C)C#N)cc2)c2c3cc(-c4cnc5ccccc5c4)ccc3ncc21 [Dactolisib] | > 1000 | > 1000 | – | > 1000 | > 1000 | > 1000 | 7.77 | 15.3 | 15.7 | 14.8 | 8.56 | 11 | 8.32 | 12.1 | 11.9 |
| CC(=O)O[C@@]12CO[C@@H]1C[C@H](O)[C@@]1(C)C(=O)[C@H](O)C3=C(C)[C@@H](OC(=O)[C@H](O)[C@@H](NC(=O)OC(C)(C)C)c4ccccc4)C[C@@](O)([C@@H](OC(=O)c4ccccc4)[C@H]21)C3(C)C [Docetaxel] | 1.15 | 4.62 | – | 6.11 | 6.13 | 8.43 | 1.07 | 3.95 | 3.86 | 0.759 | 3.08 | 8.6 | 4.15 | 2.11 | 1.02 |
| C=CCn1c(=O)c2cnc(Nc3ccc(N4CCN(C)CC4)cc3)nc2n1-c1cccc(C(C)(C)O)n1 [MK1775] | 167 | 375 | – | 1210 | 196 | 1510 | 361 | 264 | 547 | 111 | 224 | 231 | 225 | 84.1 | 326 |
| CC[C@]1(O)C[C@H]2CN(CCc3c([nH]c4ccccc34)[C@@](C(=O)OC)(c3cc4c(cc3OC)N(C=O)[C@H]3[C@@](O)(C(=O)OC)[C@H](OC(C)=O)[C@]5(CC)C=CCN6CC[C@]43[C@@H]65)C2)C1 [Vincristine] | 1.13 | 6.85 | – | 62.2 | 8.92 | 44.7 | 1.76 | 6.95 | 9.51 | 3.42 | 10.3 | 6.45 | 11 | 2.19 | 2.18 |
| O=C(Nc1ccncc1)C(=O)c1cn(Cc2ccc(Cl)cc2)c2ccccc12 [Indibulin] | 146 | 430 | > 10000 | 2000 | 494 | 1580 | 164 | 312 | – | 334 | 361 | 241 | 718 | 739 | 530 |
| Cn1c(Nc2ccc(C(F)(F)F)cc2)nc2cc(Oc3ccnc(-c4ncc(C(F)(F)F)[nH]4)c3)ccc21 [RAF265] | > 1000 | > 1000 | > 1000 | > 1000 | > 1000 | > 1000 | 137 | 107 | 177 | 111 | 49.6 | 136 | 20.6 | – | 131 |
| CNC(=O)c1cc(Oc2ccc(NC(=O)Nc3ccc(Cl)c(C(F)(F)F)c3)cc2)ccn1 [Sorafenib] | > 1000 | > 1000 | > 1000 | > 1000 | > 1000 | > 1000 | > 1000 | > 1000 | > 1000 | > 1000 | > 1000 | > 1000 | > 1000 | > 1000 | – |
| COc1ccc(-c2cc3c(C)nc(N)nc3n([C@H]3CC[C@H](OCCO)CC3)c2=O)cn1 | 350 | 1520 | – | 501 | 1630 | 2710 | 124 | 209 | 404 | 196 | 197 | 89 | 270 | 476 | 57.8 |
| CS(=O)(=O)OCCCCOS(C)(=O)=O [Busulfan] | > 100000 | > 100000 | > 100000 | > 100000 | > 100000 | > 100000 | > 100000 | > 100000 | > 100000 | > 100000 | > 100000 | > 100000 | > 100000 | – | – |
| Nc1nc(OCc2cc(Br)cs2)c2[nH]cnc2n1 [Lomeguatrib] | > 10000 | > 10000 | > 10000 | > 10000 | > 10000 | > 10000 | > 10000 | > 10000 | – | > 10000 | > 10000 | > 10000 | > 10000 | > 10000 | > 10000 |
| CCC1=C[C@@H]2CN(C1)Cc1c([nH]c3ccccc13)[C@@](C(=O)OC)(c1cc3c(cc1OC)N(C)[C@H]1[C@@](O)(C(=O)OC)[C@H](OC(C)=O)[C@]4(CC)C=CCN5CC[C@]31[C@@H]54)C2 [Vinorelbine] | 15.3 | 212 | – | 484 | 129 | 647 | 22.5 | 140 | 21.4 | 34 | 153 | 109 | 95.7 | 4.21 | 3 |
| CC(=O)Nc1ccc(C(=O)Nc2ccccc2N)cc1 [Tacedinaline] | > 1000 | > 1000 | – | > 1000 | > 1000 | > 1000 | > 1000 | > 1000 | > 1000 | > 1000 | > 1000 | > 1000 | > 1000 | > 1000 | > 1000 |
